{"source": "patent US20040023806A1", "about": "(priority 1999, published 2004)", "key": {"[1]": {"test_system": "Cercospora arachidicola", "experiment": "Residual protective activity against Cercospora arachidicola in peanuts", "type": "in vivo", "details": "peanut plants sprayed with 0.02% active substance, infected 48 hours later, evaluated 12 days after infection (number and size of leaf spots)", "procedure": "Peanut plants 10 to 15 cm high are sprayed to runoff with an aqueous spray liquor (0.02% active substance) prepared from a wettable powder of the active substance and 48 hours later are infected with a conidia suspension of the fungus. The plants are incubated at 21° C. and high atmospheric humidity for 72 hours and then placed in a greenhouse until the typical leaf spots appear. The activity of the active substance is evaluated 12 days after infection, on the basis of the number and size of leaf spots."}, "[2]": {"test_system": "Aphis craccivora", "experiment": "Activity against Aphis craccivora", "type": "in vivo", "details": "pea seedlings, spray liquor 100 ppm active substance, 20° C., 3 and 6 days later", "procedure": "Pea seedlings are infected with Aphis craccivora and sprayed with a spray liquor containing 100 ppm active substance and incubated at 20° C. 3 and 6 days later, the percentage reduction in the population (% activity) is determined by comparing the number of dead aphids on the treated and untreated plants."}, "[3]": {"test_system": "Phytophthora infestans", "type": "in vivo", "details": "tomato plants sprayed with 0.02% active substance, infected 24 hours later, assessed 5 days after infection"}, "[4]": {"test_system": "Venturia inaequalis", "experiment": "Residual protective activity against Venturia inaequalis in apples", "type": "in vivo", "details": "apple seedlings sprayed with 0.02% active substance, infected 24 hours later, assessed 12 days after infection", "procedure": "Apple seedlings with fresh shoots 10 to 20 cm long are sprayed to runoff with an aqueous spray liquor (0.02% active substance) prepared from a wettable powder of the active substance and 24 hours later are infected with a conidia suspension of the fungus. The plants are incubated at from 90 to 100 percent relative atmospheric humidity for 5 days and placed in a greenhouse at from 20 to 24° C. for […]. Fungal infestation is assessed 12 days after infection."}}}
{"smiles": "CO/N=C(C)/C(C)=N/OCc1ccccc1NC(=O)OC", "note": "[Compound 1 from table b, Methyl [2-(2-(E)-methoxyimino-1-methyl-(E)-propylideneaminooxymethyl)phenyl]carbamate]", "values": [{"measurement": "melting point", "value": "96.5 to 97.5", "unit": "°C"}]}
{"smiles": "CCN(C(=O)OC)c1ccccc1CO/N=C(C)/C(C)=N/OC", "note": "[Compound 7 from table b, Methyl N-ethyl-[2-(2-(E)-methoxyimino-1-methyl-(E)-propylideneaminooxymethyl)phenyl]carbamate]", "values": [{"measurement": "activity", "setting": "[1]", "value": "more than 80%"}, {"measurement": "melting point", "value": "101 to 102", "unit": "°C"}]}
{"smiles": "CCON=C(C(C)=NN=Cc1ccccc1N(COC)C(=O)OC)c1ccc(Oc2ccc(C(F)(F)F)cc2)cc1", "note": "[Compound 5 from table a, methyl N-methoxymethyl-[2-({2-ethoxyimino-1-methyl-2-[4-(4-trifluoromethylphenoxy)phenyl]ethylidene}hydrazonomethyl)phenyl]carbamate]", "values": [{"measurement": "kill rate (% activity, reduction in population)", "setting": "[2]", "value": "more than 80%"}]}
{"smiles": "CO/N=C(/C(C)=N/OCc1ccccc1NC(=O)OC)c1ccc(F)cc1", "values": [{"measurement": "melting point", "value": "143 to 144", "unit": "°C"}]}
{"smiles": "CCO/N=C(/C(C)=N/N=C/c1ccccc1N(C)C(=O)OC)c1ccc(Oc2ccc(C(F)(F)F)cc2)cc1", "note": "[Compound 1 from table a, Methyl N-methyl-[2-({2-ethoxyimino-1-methyl-2-[4-(4-trifluoromethylphenoxy)phenyl]ethylidene}hydrazonomethyl)phenyl]carbamate]", "values": [{"measurement": "activity", "setting": "[3]", "value": "more than 80%"}, {"measurement": "activity", "setting": "[4]", "value": "more than 80%"}]}
